Read-outs that look alike come from different tables or passages of the source.
Legend:
[1] = system: purified esterase; assay: Hydrolysis activity to thiol ester, DTNB absorbance at 412 nm (Table 2); type: biochemical, Bacillus sp. DC-1; settings: for Activity: substrate 50 μM, CoA liberated per minute; for Substrate specificity (esterase active or not): summary of properties, thiol esters
Description: (§1) Also, the hydrolysis activities of the present esterase to choline ester, cholesterol ester, and thiol ester were determined.
(§2) In Table 1, the hydrolysis activity is expressed in relative activity (%) based on the hydrolysis activity of the present esterase to ethyl butyrate taken as 100. Each substrate was used after it was emulsified with 0.2% polyvinyl alcohol. In Table 2, hydrolysis activities to choline ester and cholesterol ester were observed by the use of the Cholinesterase B-test (Wako) and Free-Cholesterol B-test (Wako), respectively, and hydrolysis activity to thiol ester was based on increase in absorbance at 412 nm with a spectrophotometer in which glutathione, a standard substance, and 5,5'-dithiobis(2-nitrobenzoic acid) (DTNB) were employed. The activity is expressed in mole numbers of choline, cholesterol, and CoA to be liberated per minute.

[2] = system: purified esterase; assay: Hydrolysis activity of the esterase to substrates, pH-stat (Example 6, Table 1); type: biochemical, Bacillus sp. DC-1; settings: 100 mM Tris-HCl pH 9.0, emulsified with 0.2% polyvinyl alcohol, ethyl butyrate = 100
Description: as §1, §2

[3] = system: purified esterase; assay: Hydrolysis activity to cholesterol ester, Free-Cholesterol B-test (Table 2); type: biochemical, Bacillus sp. DC-1; settings: substrate 1,300 μM; cholesterol liberated per minute
Description: as §1, §2

[4] = system: purified esterase; type: biochemical, Bacillus sp. DC-1
[5] = system: esterase from Pseudomonas aeruginosa; settings: cited from earlier work

Compound: CCCCCCCCCCCCCCCC(=O)SCCNC(=O)CCNC(=O)[C@H](O)C(C)(C)COP(=O)(O)OP(=O)(O)OC[C@H]1O[C@@H](n2cnc3c(N)ncnc32)[C@H](O)[C@@H]1OP(=O)(O)O [Palmitoyl CoA]
- Activity [1]: 5.4 nmol/min
- Substrate specificity (esterase active or not) [1]: Active

Compound: CCCCCCCCCCCCCCCC(=O)OCC(COC(=O)CCCCCCCCCCCCCCC)OC(=O)CCCCCCCCCCCCCCC [Tripalmitin]
- Relative activity (%) ([2]; substrate 6 mM): 1.1%

Compound: CCCCCCCCCCCCCCCC(=O)OC(C)C [Isopropyl palmitate]
- Relative activity (%) ([2]; substrate 20 mM): 1.7%

Compound: CCCC(=O)OCC [Ethyl butyrate]
- Relative activity (%) ([2]; substrate 20 mM): 100.0%

Compound: CCCCCCCCCCCCCCCC(=O)OCC(O)CO (centres unmarked) [1-palmitoyl glycerol]
- Relative activity (%) ([2]; substrate 5 mM): 3.0%

Compound: CCCCCCCCCCCCCCCC(=O)OCC(O)COC(=O)CCCCCCCCCCCCCCC [1,3-dipalmitoyl glycerol]
- Relative activity (%) ([2]; substrate 2 mM): 0%

Compound: CCCCC/C=C\C/C=C\CCCCCCCC(=O)O[C@H]1CC[C@@]2(C)C(=CC[C@H]3[C@@H]4CC[C@H]([C@H](C)CCCC(C)C)[C@@]4(C)CC[C@@H]32)C1 [Cholesterol linolate]
- Activity [3]: 0 nmol/min

Compound: CCCC(=O)OCC(COC(=O)CCC)OC(=O)CCC [Tributylin]
- Relative activity (%) ([2]; substrate 20 mM): 56.6%

Compound: Tween-80
- Remaining activity(%) [4]: 130.8%

Compound: C[C@H](CCC(=O)O)[C@H]1CC[C@H]2[C@@H]3CC[C@@H]4C[C@H](O)CC[C@]4(C)[C@H]3C[C@H](O)[C@]12C [Sodium deoxycholate]
- Remaining activity(%) [4]: 76.2%
- Decrease of activity ([4]; purified esterase, pH 9, 10 min, 1000 µM): about 25%

Compound: Tritonx-100
- Remaining activity(%) [4]: 101.5%

Compound: CCCCCCCCCCCCCCCC(=O)OCC(CO)OC(=O)CCCCCCCCCCCCCCC (centres unmarked) [1,2-dipalmitoyl glycerol]
- Relative activity (%) ([2]; substrate 5 mM): 0.2%

Compound: O=S(=O)(F)Cc1ccccc1 [PMSF, phenylmethylsulfonylfluoride]
- Inactivation of the esterase [4]: Completely inactivated
- Remaining activity(%) ([4]; 80 µM): 1.5%

Compound: CC(=O)O[C@H]1CC[C@@]2(C)C(=CC[C@H]3[C@@H]4CC[C@H]([C@H](C)CCCC(C)C)[C@@]4(C)CC[C@@H]32)C1 [Cholesterol acetate]
- Activity [3]: 0 nmol/min

Compound: CC(=O)OCC(COC(C)=O)OC(C)=O [Triacetin]
- Relative activity (%) ([2]; substrate 20 mM): 14.1%

Compound: CCCCCCCCCCCCOS(=O)(=O)[O-].[Na+] [Sodium lauryl sulfate]
- Remaining activity(%) [4]: 32.2%
- Decrease of activity (inactivation) ([4]; purified esterase, pH 9, 10 min, 5000 µM): about 70%
- Inactivation of the esterase from Pseudomonas aeruginosa [5]: not inactivated

Compound: CC(=O)SCCNC(=O)CCNC(=O)[C@H](O)C(C)(C)COP(=O)(O)OP(=O)(O)OC[C@H]1O[C@@H](n2cnc3c(N)ncnc32)[C@H](O)[C@@H]1OP(=O)(O)O [Acetyl CoA]
- Activity [1]: 0 nmol/min
- Substrate specificity (esterase active or not) [1]: not
